# According to patent US10745365B2, “Luminogenic and fluorogenic compounds and methods to detect molecules or conditions” (Promega Corporation, priority 2005, dated 2020):
# How the values were obtained:
# Type in all cases: biochemical
# [1] = target: T1, QuantiLum Luciferase (firefly luciferase) (Photinus pyralis, UniProt P08659); experiment: Residual active QuantiLum luciferase after reaction with derivative (Steady Glo); details: no additive (reactions 3A, 4A)
# T1 construct: purchased Promega Corporation El 70
# Description: (§1) After producing the solutions in Table 37, the volume of all reactions was adjusted to 990 μl with water. […] While the light reading was being taken, a 10 μl sample of the reaction was diluted to 500 μl with enzyme stop solution (cooled on ice to 4° C.) mixed and placed on ice and a second sample of 90 μl of reaction was added to 10 μl of Gel/HPLC stop and the tube placed at −20° C. A timer was started with the start of the first reaction and the start times of the remaining reactions was noted. At 15, 30, 45 and 60 minutes, each reaction was sampled as above and the light produced in the luminometer tubes was measured. At 7 and 22 minutes, the light produced in the luminometer tubes was read, but the reactions were not sampled.
# After all samples were taken, 50 μl of the sample diluted into enzyme stop solution was mixed with 50 μl of Steady Glo Luciferase Reagent (Promega) and the light produced measured after incubating at room temperature for 10 minutes. This measured the active luciferase in the initial reaction.
# as §1, with “40,” for “37,”, “−200” for “−20°”
# [2] = target: T1, QuantiLum Luciferase (firefly luciferase); experiment: Light emission of QuantiLum firefly luciferase with luciferin derivatives; details: for Light reading (Turner 20/20) at time 0: 0 min; for Light reading (Turner 20/20) at time 7: 7 min; for Light reading (Turner 20/20) at time 15: 15 min; for Light reading (Turner 20/20) at time 22: 22 min; for Light reading (Turner 20/20) at time 30: 30 min; for Light reading (Turner 20/20) at time 45: 45 min; for Light reading (Turner 20/20) at time 60: 60 min; for Light emission, Alone: Alone (no addition)
# Description: Gel and HPLC stop solution. Solid EDTA (free acid) was placed in a beaker with water and the pH of the solution adjusted to pH 7.0. The solution was then adjusted in volume to produce a solution 400 mM in EDTA.
# Enzyme stop solution. A solution was prepared containing 20 mM Bis Tris, pH 6.5, 2 mM EDTA and 1 mg/ml bovine serum albumin.
# Reaction buffer (2×). A solution was made containing 100 mM HEPES buffer, pH 8.0; 10 mM MgCl2.
# DTT stock. Solid DTT (dithiothreitol) was dissolved in water and then adjusted to pH 8.0 with solid sodium hydroxide. The solution was then adjusted in volume to produce a solution 1 M in DTT.
# as §1
# as §1, with “40,” for “37,”, “−200” for “−20°”
# The DTT, Coenzyme A, and QuantiLum stock solutions are the same as those described herein.
# This solution was diluted 1:1 with water to produce an enzyme solution labeled “No addition.” This solution was diluted 1:1 with 400 mM DTT, pH 8.0 to produce a solution labeled+DTT. This solution was diluted 1: 1 with 4 mM Coenzyme A to produce a solution labeled+Co A. Finally, this solution was diluted 1: 1 with a solution having both 4 mM Coenzyme A and 400 mM DTT to produce a solution labeled+Co A & DTT.
# 50 μl samples of these solutions were placed in the wells of luminometer microtiter plates, row A to row G, respectively. Row H of the plates was given 50 μl of water.
# Reactions in these plates were initiated by addition of 50 μl of solution containing QuantiLum luciferase using a 12 channel micropipette. The solutions added to the rows were: columns 1, 5, and 9—no addition solution; columns 2, 6, and 10—+Co A solution; columns 3, 7, and 11—+DTT solution, and; columns 4, 8, and 12—+Co A and DTT solution. After addition of the enzyme solution to the first row on every plate, a timer was started. After addition of the enzyme solution to the last row on each plate, the plate was sealed and read on a Veritas luminometer.
# [3] = test system: thermostable luciferase (Luc 146-1H2); experiment: Light emission of thermostable luciferase with luciferin derivatives; details: 100 μM each
# Description: This stock was used to produce enzyme stock solution having of 200 μg/ml enzyme solution in 1 mg/ml BSA, 200 mM HEPES buffer, pH 8.0, 20 mM MgCl2.
# Solutions were made using a 1 M DTT solution, pH adjusted to 8.0, a 20 mM Coenzyme A solution in water (both described in examples above), a 100 mM ATP solution and water to create the following solutions: Sol′ A, 100 μM ATP; Sol′B, 100 μM ATP, 4 mM Coenzyme A; Sol′n C, 100 μM ATP, 400 mM DTT, and; Sol′n D, 100 μM ATP, 4 mM Coenzyme A and 400 mM DTT.
# After assembly, the reactions were initiated by addition of 25 μl of the thermostable luciferase stock solution above and mixing the tube contents. A 50 μl sample was immediately removed and placed in a luminometer tube and the light read and the tube then replaced in a tube rack at room temperature. While the light reading was being taken, a 5 μl sample of the remaining reaction (which was kept at room temperature) was diluted into 495 μl of 50 mM BisTris, pH 6.5, 1 mg/ml BSA, 1 mM EDTA prechilled to 4° C. and the tube mixed and placed on ice. The light produced by the samples in the luminometer tubes were re-read at 20, 40, 60, 90 and 120 minutes post enzyme addition. Additional 5 μl samples were taken and diluted as above at 60 and 120 minutes post enzyme addition. Once all these readings and samples were taken, 50 μl of the diluted samples was mixed with 50 μl of Steady Glo in luminometer tubes, the tubes incubated 10 minutes […] then the light produced was read on a Turner TD 20/20 luminometer.
# T1 sequence (P08659 whole entry): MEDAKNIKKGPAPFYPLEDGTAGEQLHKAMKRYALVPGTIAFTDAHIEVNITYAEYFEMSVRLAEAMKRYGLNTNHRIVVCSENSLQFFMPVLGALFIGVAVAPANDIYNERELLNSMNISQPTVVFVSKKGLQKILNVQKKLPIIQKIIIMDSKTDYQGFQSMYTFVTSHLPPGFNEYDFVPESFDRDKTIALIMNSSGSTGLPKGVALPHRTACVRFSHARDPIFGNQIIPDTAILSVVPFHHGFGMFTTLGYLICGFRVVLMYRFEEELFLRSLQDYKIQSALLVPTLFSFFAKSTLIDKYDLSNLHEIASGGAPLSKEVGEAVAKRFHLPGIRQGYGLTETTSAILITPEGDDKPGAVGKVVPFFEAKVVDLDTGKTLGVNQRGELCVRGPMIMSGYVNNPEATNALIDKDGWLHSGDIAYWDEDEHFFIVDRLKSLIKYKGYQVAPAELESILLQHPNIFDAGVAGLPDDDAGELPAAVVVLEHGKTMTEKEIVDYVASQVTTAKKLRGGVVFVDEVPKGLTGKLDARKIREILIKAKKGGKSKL
smiles,measurement,setting,value
"O=C(O)[C@H]1CSC(c2nc3ccc(OCCO)cc3s2)=N1 [2 hydroxyethoxyluciferin derivative, 6′-(2-hydroxyethoxyl) luciferin]",loss of luciferase activity on transformation of substrate,[1],significant and substantial reduction in enzyme activity
same,Light reading (Turner 20/20) at time 0,[2]; +Co A,"810,864"
same,Light reading (Turner 20/20) at time 7,[2]; +Co A,"125,718"
same,Light reading (Turner 20/20) at time 15,[2]; +Co A,"61,287"
same,Light reading (Turner 20/20) at time 22,[2]; +Co A,"326,424"
same,Light reading (Turner 20/20) at time 30,[2]; +Co A,"169,972"
same,Light reading (Turner 20/20) at time 45,[2]; +Co A,"78,909"
same,Light reading (Turner 20/20) at time 60,[2]; +Co A,"45,156"
same,Light reading (Turner 20/20) at time 0,[2]; +DTT,"2,515,513"
same,Light reading (Turner 20/20) at time 7,[2]; +DTT,"294,885"
same,Light reading (Turner 20/20) at time 15,[2]; +DTT,"146,849"
same,Light reading (Turner 20/20) at time 22,[2]; +DTT,"335,031"
same,Light reading (Turner 20/20) at time 30,[2]; +DTT,"237,487"
same,Light reading (Turner 20/20) at time 60,[2]; +DTT,"67,064"
same,Light reading (Turner 20/20) at time 0,[2]; No Additive,"749,597"
same,Light reading (Turner 20/20) at time 7,[2]; No Additive,"114,541"
same,Light reading (Turner 20/20) at time 15,[2]; No Additive,"63,691"
same,Light reading (Turner 20/20) at time 22,[2]; No Additive,"259,945"
same,Light reading (Turner 20/20) at time 30,[2]; No Additive,"233,600"
same,Light reading (Turner 20/20) at time 45,[2]; No Additive,"51,233"
same,Light reading (Turner 20/20) at time 60,[2]; No Additive,"44,782"
same,Light reading (Turner 20/20) at time 0,[2]; no ATP,87
same,Light reading (Turner 20/20) at time 7,[2]; no ATP,106
same,Light reading (Turner 20/20) at time 15,[2]; no ATP,"387,497"
same,Light reading (Turner 20/20) at time 22,[2]; no ATP,"218,745"
same,Light reading (Turner 20/20) at time 45,[2]; no ATP,"11,499"
same,Light reading (Turner 20/20) at time 60,[2]; no ATP,"20,100"
O=C(O)C1CSC(c2nc3ccc(NCCCO)cc3s2)=N1 (stereo not shown) [N-(3-hydroxypropyl)-aminoluciferin],luciferase substrate,[2],substrate for luciferase that provides sufficient light output for a luminescence reaction
CN(C)c1ccc2nc(C3=NC(C(=O)O)CS3)sc2c1 (stereo not shown) [dimethyl amino luciferin],brightness relative to amino luciferin,[3],only about half as bright
"O=C(O)[C@H]1CSC(c2nc3ccc(OCc4ccccc4)cc3s2)=N1 [luciferin-6-benzylether, reference compound]","Light emission, Co A","[2]; Derivative Conc. 3.13 μM, +Co A",55778
same,"Light emission, Co A + DTT",[2]; Derivative Conc. 3.13 μM,80626
same,"Light emission, DTT","[2]; Derivative Conc. 3.13 μM, +DTT",86445
same,"Light emission, Alone",[2]; Derivative Conc. 3.13 μM,32994
same,"Light emission, Co A","[2]; Derivative Conc. 6.25 μM, +Co A",58288
same,"Light emission, Co A + DTT",[2]; Derivative Conc. 6.25 μM,105912
same,"Light emission, DTT","[2]; Derivative Conc. 6.25 μM, +DTT",100044
same,"Light emission, Alone",[2]; Derivative Conc. 6.25 μM,38838
same,"Light emission, Co A","[2]; Derivative Conc. 25 μM, +Co A",53097
same,"Light emission, Co A + DTT",[2]; Derivative Conc. 25 μM,90306
same,"Light emission, DTT","[2]; Derivative Conc. 25 μM, +DTT",84034
same,"Light emission, Alone",[2]; Derivative Conc. 25 μM,40093
same,"Light emission, Co A","[2]; Derivative Conc. 50 μM, +Co A",38349
same,"Light emission, Co A + DTT",[2]; Derivative Conc. 50 μM,98716
same,"Light emission, DTT","[2]; Derivative Conc. 50 μM, +DTT",80001
same,"Light emission, Alone",[2]; Derivative Conc. 50 μM,30609
same,"Light emission, Co A","[2]; Derivative Conc. 100 μM, +Co A",33199
same,"Light emission, Co A + DTT",[2]; Derivative Conc. 100 μM,64460
same,"Light emission, DTT","[2]; Derivative Conc. 100 μM, +DTT",54592
same,"Light emission, Alone",[2]; Derivative Conc. 100 μM,31581
